Columns and labels:
MDA-MB-231 = experiment: Antiproliferative activity against human MDA-MB-231 cells after 72 hrs by MTT assay; format: functional, cell-based; details: MDA-MB-231, 72 h
[1] = Selectivity index, ratio of CC50 for mouse TAMH cells to IC50 for human HCT116 cells; format: toxicity; details: TAMH cells (CC50) and HCT116 cells (IC50)
[2] = Selectivity index, ratio of CC50 for human AC10 cells to IC50 for human MDA-MB-231 cells; format: toxicity; details: AC10 cells (CC50) and MDA-MB-231 cells (IC50)
[3] = Selectivity index, ratio of CC50 for mouse TAMH cells to IC50 for human PC3 cells; format: toxicity; details: TAMH cells (CC50) and PC3 cells (IC50)
PC-3 = experiment: Antiproliferative activity against human PC3 cells after 72 hrs by MTT assay; format: functional, cell-based; details: PC-3, 72 h
[4] = Selectivity index, ratio of CC50 for mouse TAMH cells to IC50 for human MCF7 cells; format: toxicity; details: TAMH cells (CC50) and MCF7 cells (IC50)
[5] = molecular target: T1, Protein deacetylase HDAC6 (Homo sapiens, UniProt Q9UBN7); experiment: Inhibition of HDAC6 (unknown origin) using Arg-His-Lys-Lys(Ac) as substrate preincubated with enzyme followed by substrate addition for 2 hrs and measured for 1.5 hrs at 15 mins time interval by fluorescence assay
T1 sequence (Q9UBN7 whole entry): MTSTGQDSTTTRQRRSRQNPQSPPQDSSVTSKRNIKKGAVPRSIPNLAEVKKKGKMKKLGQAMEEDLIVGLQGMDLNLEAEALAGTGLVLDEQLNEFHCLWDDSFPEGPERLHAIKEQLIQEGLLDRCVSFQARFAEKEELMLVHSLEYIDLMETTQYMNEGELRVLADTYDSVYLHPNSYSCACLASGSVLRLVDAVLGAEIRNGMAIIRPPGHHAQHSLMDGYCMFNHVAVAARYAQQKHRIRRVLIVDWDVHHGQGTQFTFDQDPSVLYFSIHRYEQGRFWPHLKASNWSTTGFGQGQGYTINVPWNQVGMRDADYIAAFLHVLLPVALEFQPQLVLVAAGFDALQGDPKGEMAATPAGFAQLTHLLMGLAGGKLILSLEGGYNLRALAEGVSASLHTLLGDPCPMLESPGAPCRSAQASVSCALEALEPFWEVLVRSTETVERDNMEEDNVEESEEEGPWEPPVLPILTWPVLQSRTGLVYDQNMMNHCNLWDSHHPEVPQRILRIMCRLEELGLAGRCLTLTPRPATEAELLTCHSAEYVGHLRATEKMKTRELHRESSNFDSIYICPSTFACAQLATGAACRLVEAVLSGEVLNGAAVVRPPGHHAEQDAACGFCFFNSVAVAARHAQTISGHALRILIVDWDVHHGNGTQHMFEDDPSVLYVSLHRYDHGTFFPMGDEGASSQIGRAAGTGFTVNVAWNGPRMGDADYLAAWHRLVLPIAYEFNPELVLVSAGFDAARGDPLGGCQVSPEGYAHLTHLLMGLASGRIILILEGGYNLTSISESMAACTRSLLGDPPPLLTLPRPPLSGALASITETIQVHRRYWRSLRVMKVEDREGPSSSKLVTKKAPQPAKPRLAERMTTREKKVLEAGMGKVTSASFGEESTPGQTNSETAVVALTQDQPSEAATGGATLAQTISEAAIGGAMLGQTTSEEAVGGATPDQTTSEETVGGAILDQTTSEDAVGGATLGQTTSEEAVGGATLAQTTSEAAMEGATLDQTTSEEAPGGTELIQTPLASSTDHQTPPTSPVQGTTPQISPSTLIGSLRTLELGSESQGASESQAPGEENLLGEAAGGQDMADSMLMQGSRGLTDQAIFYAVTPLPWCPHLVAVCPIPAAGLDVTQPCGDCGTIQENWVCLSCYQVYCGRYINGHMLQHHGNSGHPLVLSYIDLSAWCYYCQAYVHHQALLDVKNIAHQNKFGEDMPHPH

[6] = Selectivity index, ratio of CC50 for human AC10 cells to IC50 for human MCF7 cells; format: toxicity; details: AC10 cells (CC50) and MCF7 cells (IC50)
[7] = Selectivity index, ratio of CC50 for human AC10 cells to IC50 for human PC3 cells; format: toxicity; details: AC10 cells (CC50) and PC3 cells (IC50)
[8] = molecular target: Tyrosine-protein kinase JAK2 (Homo sapiens, UniProt O60674); experiment: Inhibition of human JAK2 using poly(Glu:Tyr)(4:1) as substrate preincubated for 20 mins followed by [gamma33P]ATP addition measured after 120 mins by ion exchange filter paper method
Chain of Tyrosine-protein kinase JAK2 (O60674 whole entry): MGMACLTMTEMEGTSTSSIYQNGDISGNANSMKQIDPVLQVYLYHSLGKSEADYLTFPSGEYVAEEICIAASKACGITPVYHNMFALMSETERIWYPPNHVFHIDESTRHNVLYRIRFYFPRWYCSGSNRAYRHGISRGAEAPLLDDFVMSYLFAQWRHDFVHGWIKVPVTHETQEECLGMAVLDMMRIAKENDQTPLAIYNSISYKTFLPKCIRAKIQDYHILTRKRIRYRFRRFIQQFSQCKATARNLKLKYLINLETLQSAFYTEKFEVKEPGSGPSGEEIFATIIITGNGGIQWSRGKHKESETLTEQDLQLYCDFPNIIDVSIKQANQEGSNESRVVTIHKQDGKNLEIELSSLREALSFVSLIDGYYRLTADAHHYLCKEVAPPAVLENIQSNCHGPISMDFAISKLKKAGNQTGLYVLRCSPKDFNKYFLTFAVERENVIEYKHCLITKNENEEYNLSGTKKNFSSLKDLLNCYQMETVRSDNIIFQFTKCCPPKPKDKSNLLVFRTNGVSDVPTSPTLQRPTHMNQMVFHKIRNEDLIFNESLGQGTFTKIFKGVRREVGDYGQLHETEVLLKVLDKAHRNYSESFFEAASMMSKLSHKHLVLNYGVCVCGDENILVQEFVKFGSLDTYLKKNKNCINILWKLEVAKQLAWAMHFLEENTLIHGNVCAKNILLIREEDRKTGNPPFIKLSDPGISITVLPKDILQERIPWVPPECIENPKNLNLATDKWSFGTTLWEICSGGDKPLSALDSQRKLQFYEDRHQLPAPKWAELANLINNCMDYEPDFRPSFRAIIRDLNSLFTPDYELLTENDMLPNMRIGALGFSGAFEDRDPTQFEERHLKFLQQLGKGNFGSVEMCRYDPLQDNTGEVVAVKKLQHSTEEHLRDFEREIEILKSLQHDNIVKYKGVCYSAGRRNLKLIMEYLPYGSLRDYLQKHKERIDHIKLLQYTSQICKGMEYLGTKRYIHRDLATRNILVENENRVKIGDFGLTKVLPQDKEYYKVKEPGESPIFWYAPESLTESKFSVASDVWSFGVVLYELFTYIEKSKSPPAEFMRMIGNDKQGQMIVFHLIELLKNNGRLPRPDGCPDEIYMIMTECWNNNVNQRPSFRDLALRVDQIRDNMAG

Histone deacetylase 1 = Histone deacetylase 1 (Homo sapiens, UniProt Q13547); experiment: Inhibition of HDAC1 (unknown origin) using Arg-His-Lys-Lys(Ac) as substrate preincubated with enzyme followed by substrate addition for 2 hrs and measured for 1.5 hrs at 15 mins time interval by fluorescence assay
Chain of Histone deacetylase 1 (Q13547 whole entry): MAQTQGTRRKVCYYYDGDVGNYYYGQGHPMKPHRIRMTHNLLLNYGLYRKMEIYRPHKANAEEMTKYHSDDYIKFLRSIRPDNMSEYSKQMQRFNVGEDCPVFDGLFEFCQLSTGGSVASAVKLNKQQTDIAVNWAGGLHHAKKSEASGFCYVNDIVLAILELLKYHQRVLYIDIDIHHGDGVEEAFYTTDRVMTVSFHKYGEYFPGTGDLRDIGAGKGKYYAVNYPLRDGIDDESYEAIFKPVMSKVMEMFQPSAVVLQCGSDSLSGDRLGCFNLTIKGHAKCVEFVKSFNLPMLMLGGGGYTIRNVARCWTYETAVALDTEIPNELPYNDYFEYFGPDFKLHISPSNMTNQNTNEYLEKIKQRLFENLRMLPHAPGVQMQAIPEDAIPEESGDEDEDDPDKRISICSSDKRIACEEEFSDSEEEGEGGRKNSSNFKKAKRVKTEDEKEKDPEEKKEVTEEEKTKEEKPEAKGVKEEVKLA

HCT-116 = experiment: Antiproliferative activity against human HCT116 cells after 72 hrs by MTT assay; format: functional, cell-based; details: HCT-116, 72 h
[9] = Selectivity index, ratio of CC50 for mouse TAMH cells to IC50 for human MDA-MB-231 cells; format: toxicity; details: TAMH cells (CC50) and MDA-MB-231 cells (IC50)
MCF7 = experiment: Antiproliferative activity against human MCF7 cells after 72 hrs by MTT assay; format: functional, cell-based; details: MCF7, 72 h
[10] = Selectivity index, ratio of CC50 for human AC10 cells to IC50 for human HCT116 cells; format: toxicity; details: AC10 cells (CC50) and HCT116 cells (IC50)
[11] = Antiproliferative activity against human AC10 cells after 72 hrs by MTT assay; format: cell-based
[12] = Antiproliferative activity against mouse TAMH cells after 72 hrs by MTT assay; format: cell-based
Jurkat = experiment: Antiproliferative activity against human Jurkat cells after 72 hrs by MTT assay; format: functional, cell-based
HEL 92.1.7 = experiment: cells; format: functional, cell-based; details: Homo sapiens, HEL 92.1.7, 72 h
Description: Antiproliferative activity against human HEL 92.1.7 cells after 72 hrs by MTT assay

[13] = Antiproliferative activity against human XG6 cells after 72 hrs by MTT assay; format: functional, cell-based; details: XG6, 72 h
KMS-12-BM = experiment: Antiproliferative activity against human KMS-12-BM cells after 72 hrs by MTT assay; format: functional, cell-based

Row | IC50 (MDA-MB-231) [µM] | IC50 (PC-3) [µM] | IC50 [5] [µM] | IC50 [8] [µM] | IC50 (Histone deacetylase 1) [µM] | IC50 (HCT-116) [µM] | IC50 (MCF7) [µM] | Compound | selectivity ratio [1] | selectivity ratio [2] | selectivity ratio [3] | selectivity ratio [4] | selectivity ratio [6] | selectivity ratio [7] | selectivity ratio [9] | selectivity ratio [10] | CC50 at 72 h [11] [µM] | CC50 at 72 h [12] [µM] | further results
1 | 0.97 | 1.04 | 0.0021 | 0.0043 | 0.139 | 1.05 | 1.3 | Cc1cnc(Nc2ccc(N3CCN(C)CC3)cc2)nc1-c1ccc(NC(=O)CCCCCCC(=O)NO)cc1 | 7.12 | 3.84 | 7.19 | 5.75 | 2.86 | 3.58 | 7.71 | 3.54 | 3.72 | 7.48 | –
2 | 0.65 | 1.15 | 0.0068 | 0.109 | 0.348 | 0.77 | 1.32 | CN1CCN(CC(=O)Nc2ccc(-c3ccnc(Nc4cccc(OCCCCCCC(=O)NO)c4)n3)cc2)CC1 | 6.64 | 9.65 | 4.44 | 3.87 | 4.75 | 5.45 | 7.86 | 8.14 | 6.27 | 5.11 | –
3 | 2.83 | 5.58 | 0.023 | – | 0.934 | 1.07 | 1.89 | O=C(CCCCCCC(=O)Nc1ccc(-c2ccnc(Nc3ccc(N4CCCCC4)cc3)n2)cc1)NO | – | – | – | – | – | – | – | – | 11.7 | 12.9 | –
4 | 32.1 | 47.3 | 0.117 | 0.0583 | 3.35 | 65.6 | 43.4 | CC(=O)Nc1ccc(-c2ccnc(Nc3ccc(NC(=O)CCCCC(=O)NO)cc3)n2)cc1 | – | – | – | – | – | – | – | – | – | – | –
5 | – | – | 0.009 | 0.0066 | 0.179 | – | – | O=C(CCCCCCC(=O)Nc1ccc(-c2ccnc(Nc3cccc(N4CCCCC4)c3)n2)cc1)NO | 2.81 | 4.02 | 6.25 | 4.42 | 5.04 | 7.12 | 3.53 | 3.2 | 5.34 | 4.69 | –
6 | 1.06 | 2.41 | 0.0035 | 0.0256 | 0.26 | 0.92 | 2.37 | CC(=O)Nc1ccc(-c2nc(Nc3ccc(OCCCCCC(=O)NO)cc3)ncc2C)cc1 | 6.07 | 16 | 2.32 | 2.35 | 7.14 | 7.02 | 5.26 | 18.4 | 16.9 | 5.58 | –
7 | 3.88 | 4.09 | 0.0061 | 0.0955 | 0.142 | 1.69 | 4.84 | CN1CCN(CC(=O)Nc2ccc(-c3ccnc(Nc4ccc(OCCCCCCC(=O)NO)cc4)n3)cc2)CC1 | 4.78 | 1.06 | 1.97 | 1.67 | 0.85 | 1 | 2.08 | 2.43 | 4.1 | 8.07 | –
8 | – | – | 3.15 | 0.239 | > 10 | – | – | COC(=O)CCCCCCOc1ccc(Nc2nccc(-c3ccc(NC(C)=O)cc3)n2)cc1 | – | – | – | – | – | – | – | – | – | – | –
9 | 0.27 | 0.21 | 0.00144 | 0.0413 | 0.0038 | 0.19 | 0.33 | O=C(CCCCCCC(=O)Nc1ccc(-c2ccnc(Nc3ccccc3)n2)cc1)NO | 38.3 | 11.2 | 34.7 | 22.1 | 9.12 | 14.3 | 27 | 15.8 | 3.01 | 7.28 | –

The next lines start with the compound.

Row | Compound | IC50 (MDA-MB-231) [µM] | IC50 (PC-3) [µM] | IC50 [5] [µM] | IC50 [8] [µM] | IC50 (Histone deacetylase 1) [µM] | IC50 (HCT-116) [µM] | IC50 (MCF7) [µM] | selectivity ratio [1] | selectivity ratio [2] | selectivity ratio [3] | selectivity ratio [4] | selectivity ratio [6] | selectivity ratio [7] | selectivity ratio [9] | selectivity ratio [10] | CC50 at 72 h [11] [µM] | CC50 at 72 h [12] [µM] | further results
10 | O=C(CCCCCCC(=O)Nc1ccccc1)NO [VORINOSTAT] | – | – | – | – | – | – | 0.81 | – | – | – | – | – | – | – | – | – | – | –
11 | CC(=O)Nc1ccc(-c2ccnc(Nc3cccc(NC(=O)CCCCCCC(=O)NO)c3)n2)cc1 | 2.48 | 0.34 | 0.00081 | 0.0092 | 0.0324 | 1.15 | 0.32 | 6.36 | 12.7 | – | – | – | – | 8.14 | 9.91 | 19.5 | 12.5 | IC50 (Jurkat): > 10 µM; IC50 (HEL 92.1.7): > 10 µM
12 | CC(=O)Nc1ccc(-c2nc(Nc3cccc(OCCCCCCC(=O)NO)c3)ncc2C)cc1 | 1.4 | 2.76 | 0.0061 | 0.0039 | 0.155 | 1.19 | 1.71 | 3.31 | 3.46 | 1.43 | 2.3 | 2.83 | 1.75 | 2.81 | 4.07 | 4.84 | 3.94 | –
13 | CC(=O)Nc1ccc(-c2ccnc(Nc3ccc(N4CCCCC4)cc3)n2)cc1 | – | – | – | 0.0029 | – | – | – | – | – | – | – | – | – | – | – | – | – | –
14 | CC(=O)Nc1ccc(-c2ccnc(Nc3cccc(N4CCOCC4)c3)n2)cc1 | – | – | – | 0.0196 | – | – | – | – | – | – | – | – | – | – | – | – | – | –
15 | CC(CCCCCC(=O)NO)n1cc(-c2ncnc3[nH]ccc23)cn1 (centres undefined) | 0.79 | 2.41 | – | – | – | 2.32 | 0.84 | – | – | – | – | – | – | – | – | – | – | IC50 [13]: 2.01 µM; IC50 (KMS-12-BM): 2.02 µM; IC50 (Jurkat): 0.47 µM; IC50 (HEL 92.1.7): 1.32 µM
16 | O=C(Nc1ccc(-c2ccnc(Nc3ccc(N4CCOCC4)cc3)n2)cc1)[C@@H]1CCCN1 | 9.67 | 14.9 | – | – | – | 7.34 | 27.2 | – | – | – | – | – | – | – | – | – | – | –
17 | O=C(CCCCCCOc1ccc2cc1COC/C=C/COCc1cccc(c1)-c1ccnc(n1)N2)NO | – | 1.7 | – | – | – | – | – | – | – | – | – | – | – | – | – | – | – | –
18 | CC(=O)Nc1ccc(-c2ccnc(Nc3ccc(N4CCN(C)CC4)cc3)n2)cc1 | – | – | – | 0.0079 | – | – | – | – | – | – | – | – | – | – | – | – | – | –
19 | CC(=O)Nc1ccc(-c2ccnc(Nc3cccc(N4CCCCC4)c3)n2)cc1 | – | – | – | 0.0138 | – | – | – | – | – | – | – | – | – | – | – | – | – | –
20 | Cc1cnc(Nc2ccc(N3CCOCC3)cc2)nc1-c1ccc(NC(=O)CCCCCCC(=O)NO)cc1 | 1.23 | 1.74 | 0.0037 | – | 0.289 | 2.53 | 2.47 | – | – | – | – | – | – | – | – | 6.06 | 7.47 | –

From ChEMBL document CHEMBL4265943, “Design and synthesis of potent dual inhibitors of JAK2 and HDAC based on fusing the pharmacophores of XL019 and vorinostat” (Eur J Med Chem, 2018)
